# System: HOP-62 complex spheroids with HUVEC/MSC, viability
# Experiment: Anticancer human tumor HOP-62 cell line growth inhibition [RAS];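 further: spheroids exposed to agents for seven days before readout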;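 on viability, T/C: 100% = DMSO vehicle control viability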
# Settings: for IC50: curve of first compound; for viability, T/C: stronger effect = lower value
# Procedure, shortened: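 Multi-cell-type spheroids: tumor cells plus HUVEC endothelial cells and mesenchymal stem cells. RAS-pathway inhibitors were combined with targeted agents, each dosed in half-log steps down from clinical Cmax, or from 10 microM when Cmax was unknown.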
structure (smiles),measurement,setting,value
CC(=O)OC12COC1CC(O)C1(C)C(=O)C(O)C3=C(C)C(OC(=O)C(O)C(NC(=O)OC(C)(C)C)c4ccccc4)CC(O)(C(OC(=O)c4ccccc4)C21)C3(C)C (centres undefined) + C=CC(=O)N1CCN(c2nc(OCC3CCCN3C)nc3c(F)c(-c4nc(N)cc(C)c4C(F)(F)F)c(Cl)cc23)C(C)C1,IC50,second compound 0.00316 µM,< 31.6 nM
same,IC50,second compound 0.01 µM,< 31.6 nM
same,IC50,second compound 0.0316 µM,< 31.6 nM
same,IC50,second compound 0.1 µM,< 31.6 nM
same,IC50,second compound 0.316 µM,< 31.6 nM
same,IC50,second compound 1 µM,< 31.6 nM
same,"viability, T/C","second compound 0.00316 µM, first compound 0.0316 µM",11.2%
same,"viability, T/C","second compound 0.00316 µM, first compound 0.1 µM",14.7%
same,"viability, T/C","second compound 0.00316 µM, first compound 0.316 µM",10.4%
same,"viability, T/C","second compound 0.00316 µM, first compound 1 µM",12.3%
same,"viability, T/C","second compound 0.00316 µM, first compound 3.16 µM",15.1%
same,"viability, T/C","second compound 0.00316 µM, first compound 10 µM",20.3%
same,"viability, T/C","second compound 0.01 µM, first compound 0.0316 µM",10.4%
same,"viability, T/C","second compound 0.01 µM, first compound 0.1 µM",11.1%
same,"viability, T/C","second compound 0.01 µM, first compound 0.316 µM",13.4%
same,"viability, T/C","second compound 0.01 µM, first compound 1 µM",10.4%
same,"viability, T/C","second compound 0.01 µM, first compound 3.16 µM",12.5%
same,"viability, T/C","second compound 0.01 µM, first compound 10 µM",16.6%
same,"viability, T/C","second compound 0.0316 µM, first compound 0.0316 µM",9.88%
same,"viability, T/C","second compound 0.0316 µM, first compound 0.1 µM",11.9%
same,"viability, T/C","second compound 0.0316 µM, first compound 0.316 µM",11%
same,"viability, T/C","second compound 0.0316 µM, first compound 1 µM",13%
same,"viability, T/C","second compound 0.0316 µM, first compound 3.16 µM",15.2%
same,"viability, T/C","second compound 0.0316 µM, first compound 10 µM",14.6%
same,"viability, T/C","second compound 0.1 µM, first compound 0.0316 µM",11.6%
same,"viability, T/C","second compound 0.1 µM, first compound 0.1 µM",12.4%
same,"viability, T/C","second compound 0.1 µM, first compound 0.316 µM",11.9%
same,"viability, T/C","second compound 0.1 µM, first compound 1 µM",13.6%
same,"viability, T/C","second compound 0.1 µM, first compound 3.16 µM",15.2%
same,"viability, T/C","second compound 0.1 µM, first compound 10 µM",19%
same,"viability, T/C","second compound 0.316 µM, first compound 0.0316 µM",9.18%
same,"viability, T/C","second compound 0.316 µM, first compound 0.1 µM",9.55%
same,"viability, T/C","second compound 0.316 µM, first compound 0.316 µM",10.4%
same,"viability, T/C","second compound 0.316 µM, first compound 1 µM",10.9%
same,"viability, T/C","second compound 0.316 µM, first compound 3.16 µM",14.8%
same,"viability, T/C","second compound 0.316 µM, first compound 10 µM",20.1%
same,"viability, T/C","second compound 1 µM, first compound 0.0316 µM",10.2%
same,"viability, T/C","second compound 1 µM, first compound 0.1 µM",10.5%
same,"viability, T/C","second compound 1 µM, first compound 0.316 µM",13%
same,"viability, T/C","second compound 1 µM, first compound 1 µM",14.2%
same,"viability, T/C","second compound 1 µM, first compound 3.16 µM",15.5%
same,"viability, T/C","second compound 1 µM, first compound 10 µM",20.1%
O=C(c1ccc(F)c(F)c1Nc1ccc(I)cc1F)N1CC(O)([C@@H]2CCCCN2)C1 + CCn1c(-c2cc(N3CCN(C)CC3)cnc2C(C)OC)c2c3cc(ccc31)-c1csc(n1)CC(NC(=O)C1CC1C)C(=O)N1CCCC(N1)C(=O)OCC(C)(C)C2,IC50,second compound 0.000949 µM,319 nM
same,IC50,second compound 0.003 µM,113 nM
same,IC50,second compound 0.00949 µM,56.7 nM
same,IC50,second compound 0.03 µM,< 3.16 nM
same,IC50,second compound 0.0949 µM,< 3.16 nM
same,IC50,second compound 0.3 µM,< 3.16 nM
same,"viability, T/C","second compound 0.000949 µM, first compound 0.00316 µM",119%
same,"viability, T/C","second compound 0.000949 µM, first compound 0.01 µM",113%
same,"viability, T/C","second compound 0.000949 µM, first compound 0.0316 µM",78.7%
same,"viability, T/C","second compound 0.000949 µM, first compound 0.1 µM",75.9%
same,"viability, T/C","second compound 0.000949 µM, first compound 0.316 µM",51.2%
same,"viability, T/C","second compound 0.000949 µM, first compound 1 µM",27%
same,"viability, T/C","second compound 0.003 µM, first compound 0.00316 µM",86.3%
same,"viability, T/C","second compound 0.003 µM, first compound 0.01 µM",73.3%
same,"viability, T/C","second compound 0.003 µM, first compound 0.0316 µM",56.9%
same,"viability, T/C","second compound 0.003 µM, first compound 0.1 µM",56.5%
same,"viability, T/C","second compound 0.003 µM, first compound 0.316 µM",39.3%
same,"viability, T/C","second compound 0.003 µM, first compound 1 µM",37.3%
same,"viability, T/C","second compound 0.00949 µM, first compound 0.00316 µM",65.5%
same,"viability, T/C","second compound 0.00949 µM, first compound 0.01 µM",52%
same,"viability, T/C","second compound 0.00949 µM, first compound 0.0316 µM",67.8%
same,"viability, T/C","second compound 0.00949 µM, first compound 0.1 µM",38.5%
same,"viability, T/C","second compound 0.00949 µM, first compound 0.316 µM",28.5%
same,"viability, T/C","second compound 0.00949 µM, first compound 1 µM",30.9%
same,"viability, T/C","second compound 0.03 µM, first compound 0.00316 µM",49.9%
same,"viability, T/C","second compound 0.03 µM, first compound 0.01 µM",45.9%
same,"viability, T/C","second compound 0.03 µM, first compound 0.0316 µM",33.1%
same,"viability, T/C","second compound 0.03 µM, first compound 0.1 µM",32.2%
same,"viability, T/C","second compound 0.03 µM, first compound 0.316 µM",29.2%
same,"viability, T/C","second compound 0.03 µM, first compound 1 µM",37.3%
same,"viability, T/C","second compound 0.0949 µM, first compound 0.00316 µM",36.7%
same,"viability, T/C","second compound 0.0949 µM, first compound 0.01 µM",35.3%
same,"viability, T/C","second compound 0.0949 µM, first compound 0.0316 µM",32.9%
same,"viability, T/C","second compound 0.0949 µM, first compound 0.1 µM",41.7%
same,"viability, T/C","second compound 0.0949 µM, first compound 0.316 µM",32.8%
same,"viability, T/C","second compound 0.0949 µM, first compound 1 µM",37.5%
same,"viability, T/C","second compound 0.3 µM, first compound 0.00316 µM",37%
same,"viability, T/C","second compound 0.3 µM, first compound 0.01 µM",39.1%
same,"viability, T/C","second compound 0.3 µM, first compound 0.0316 µM",37%
same,"viability, T/C","second compound 0.3 µM, first compound 0.1 µM",38.7%
same,"viability, T/C","second compound 0.3 µM, first compound 0.316 µM",32.9%
same,"viability, T/C","second compound 0.3 µM, first compound 1 µM",38.3%
